Data as given in ChEMBL document CHEMBL1133911, “Synthesis of OSW-1 analogues and a dimer and their antitumor activities” (Bioorg Med Chem Lett, 2001).

Experiments:
Assay type in all cases: functional
A549 [1] = assay: Percent growth inhibition of A-549 human lung adenocarcinoma at 10e-6 M compound concentration in standard MTT assay
A549 [2] = assay: Percent growth inhibition of A-549 human lung adenocarcinoma at 10e-7 M compound concentration in standard MTT assay
P388 [3] = assay: Percent growth inhibition of P388 mouse leukemia at 10e-6 M compound concentration in standard MTT assay
P388 [4] = assay: Percent growth inhibition of P388 mouse leukemia at 10e-7 M compound concentration in standard MTT assay
P388 [5] = assay: Percent growth inhibition of P388 mouse leukemia at 10e-8 M compound concentration in standard MTT assay
A549 [6] = assay: Percent growth inhibition of A-549 human lung adenocarcinoma at 10e-8 M compound concentration in standard MTT assay

## CC(=O)OC[C@@H](C)[C@@]1(O)[C@H](OC2OCC(O)C(OC3OCC(O)C(O)C3OC(C)c3ccccc3)C2OC(C)=O)CC2C3CC=C4C[C@@H](OC(C)=O)CC[C@]4(C)C3CC[C@@]21C (stereo not given in full)
A549 [1]
  inhibition at 1 µM: 6.2%
A549 [2]
  inhibition at 0.1 µM: 0.8%
P388 [3]
  inhibition at 1 µM: 20.4%
P388 [4]
  inhibition at 0.1 µM: 15.5%
P388 [5]
  inhibition at 0.01 µM: 17.9%

## CC(=O)OC1C(O[C@@H]2CC3C4CC=C5C[C@@H](O)CC[C@]5(C)C4CC[C@]3(C)[C@@]2(O)[C@H](C)C(=O)CCC(C)C)OCC(O)C1OC1OCC(O)C(O)C1OC(C)c1ccccc1 (stereo not given in full)
A549 [1]
  inhibition at 1 µM: 53.8%
A549 [2]
  inhibition at 0.1 µM: 29.5%
P388 [3]
  inhibition at 1 µM: 66.7%
P388 [4]
  inhibition at 0.1 µM: 35.4%
P388 [5]
  inhibition at 0.01 µM: 15.5%

## CC(=O)OC1C(O[C@H]2CC[C@@]3(C)C(=CCC4C3CC[C@@]3(C)C4C[C@@H](OC4OCC(O)C(OC5OCC(O)C(O)C5OC(C)c5ccccc5)C4OC(C)=O)[C@]3(O)[C@H](C)C(=O)CCC(C)C)C2)OCC(O)C1OC1OCC(O)C(O)C1OC(C)c1ccccc1 (stereo not given in full)
A549 [1]
  inhibition at 1 µM: 80.9%
A549 [2]
  inhibition at 0.1 µM: 6.7%
A549 [6]
  inhibition at 0.01 µM: 0.7%
P388 [3]
  inhibition at 1 µM: 90.7%
P388 [4]
  inhibition at 0.1 µM: 52%
